ChEMBL document CHEMBL5500363, “Discovery of novel ocotillol derivatives modulating glucocorticoid receptor/NF-κB signaling for the treatment of sepsis” (Eur J Med Chem, 2024)
The source made the active and inactive calls. The calls are words filed in the database; no cut-off is given here.

Assays:
RAW264.7 [1] = assay: Downregulation of glucocorticoid receptor in mouse RAW264.7 cells at 1 uM incubated for 24 hrs by Western blot analysis; assay type: functional, cell-based
RAW264.7 [2] = assay: Downregulation of glucocorticoid receptor in LPS-treated mouse RAW264.7 cells at 1 uM incubated for 24 hrs by qRT-PCR analysis; assay type: functional, cell-based
RAW264.7 [3] = assay: Inhibition of LPS-induced NO production in mouse RAW264.7 cells at 5 uM pretreated for 2 hrs followed by LPS stimulation for 24 hrs by Griess assay relative to control; assay type: functional; details: time 26 hrs
RAW264.7 [4] = assay: Inhibition of LPS-induced NO production in mouse RAW264.7 cells at 10 uM pretreated for 2 hrs followed by LPS stimulation for 24 hrs by Griess assay relative to control; assay type: functional; details: time 26 hrs
RAW264.7 [5] = assay: Inhibition of LPS-induced NO production in mouse RAW264.7 cells at 20 uM pretreated for 2 hrs followed by LPS stimulation for 24 hrs by Griess assay relative to control; assay type: functional; details: time 26 hrs
RAW264.7 [6] = assay: Inhibition of LPS-induced NO production in mouse RAW264.7 cells pretreated for 2 hrs followed by LPS stimulation for 24 hrs by Griess assay; assay type: functional, cell-based
[7] = biological target: T1, Glucocorticoid receptor (Mus musculus) (UniProt P06537); assay: Stabilization of glucocorticoid receptor in mouse RAW264.7 cells assessed as blockade of CHX-induced protein degradation at 20 uM incubated for 24 hrs by Western blot analysis; assay type: cell-based
T1 sequence (whole entry): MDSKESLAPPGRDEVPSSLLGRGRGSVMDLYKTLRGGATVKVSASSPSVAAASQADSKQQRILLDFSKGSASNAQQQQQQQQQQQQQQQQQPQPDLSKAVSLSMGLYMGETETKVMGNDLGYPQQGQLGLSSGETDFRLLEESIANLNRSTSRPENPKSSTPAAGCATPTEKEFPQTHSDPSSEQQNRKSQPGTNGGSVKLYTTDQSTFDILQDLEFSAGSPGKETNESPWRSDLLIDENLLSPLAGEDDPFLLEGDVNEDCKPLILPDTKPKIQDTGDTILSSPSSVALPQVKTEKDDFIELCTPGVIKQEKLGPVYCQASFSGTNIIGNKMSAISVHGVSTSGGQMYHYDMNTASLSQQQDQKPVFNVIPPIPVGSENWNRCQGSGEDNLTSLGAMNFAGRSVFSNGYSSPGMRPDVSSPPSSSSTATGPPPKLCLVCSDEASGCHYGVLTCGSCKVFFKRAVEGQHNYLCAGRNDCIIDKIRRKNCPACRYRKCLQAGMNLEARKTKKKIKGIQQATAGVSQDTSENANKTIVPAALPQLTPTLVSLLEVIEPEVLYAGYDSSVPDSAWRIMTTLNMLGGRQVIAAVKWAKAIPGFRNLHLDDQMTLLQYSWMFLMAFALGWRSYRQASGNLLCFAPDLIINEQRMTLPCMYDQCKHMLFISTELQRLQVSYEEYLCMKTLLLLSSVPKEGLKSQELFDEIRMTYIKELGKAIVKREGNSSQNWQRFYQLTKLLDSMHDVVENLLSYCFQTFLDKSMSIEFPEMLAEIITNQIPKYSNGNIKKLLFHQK

RAW264.7 [8] = assay: Effect on KLF9 mRNA expression in mouse RAW264.7 cells by qPCR analysis; assay type: functional, cell-based
RAW264.7 [9] = assay: Anti-inflammatory activity in mouse RAW264.7 cells assessed as decrease in LPS-induced I-kappaB-alpha phosphorylation at 20 uM pretreated for 2 hrs followed by LPS stimulation for 24 hrs by Western blot analysis; assay type: functional, cell-based; details: time 26.0 hrs
RAW264.7 [10] = assay: Anti-inflammatory activity in mouse RAW264.7 cells assessed as decrease in LPS-induced p65 phosphorylation at 20 uM pretreated for 2 hrs followed by LPS stimulation for 24 hrs by Western blot analysis; assay type: functional, cell-based; details: time 26.0 hrs
RAW264.7 [11] = assay: Anti-inflammatory activity in LPS-treated mouse RAW264.7 cells assessed as reversal of nuclear translocation of p65 at 20 uM pretreated for 2 hrs followed by LPS stimulation for 24 hrs by immunofluorescence analysis; assay type: functional, cell-based; details: time 26.0 hrs
Mus musculus [12] = assay: Downregulation of I-kappa-B-alpha phosphorylation in liver of LPS-induced sepsis BALB/c mouse model at 7.5 to 30 mg/kg administered via gavage for 3 days followed by LPS treatment for 6 hrs by Western blot analysis; assay type: functional, organism-based; details: dose 7.5-30 mg/kg, time 78.0 hrs
Mus musculus [13] = assay: Downregulation of p65 phosphorylation in liver of LPS-induced sepsis BALB/c mouse model at 7.5 to 30 mg/kg administered via gavage for 3 days followed by LPS treatment for 6 hrs by Western blot analysis; assay type: functional, organism-based; details: dose 7.5-30 mg/kg, time 78.0 hrs
Mus musculus [14] = assay: Anti-septic activity in LPS-induced sepsis BALB/c mouse assessed as reduction in serum ALT level at 30 mg/kg administered via gavage for 3 days followed by LPS treatment for 6 hrs; assay type: functional, organism-based; details: time 78.0 hrs
Mus musculus [15] = assay: Anti-septic activity in LPS-induced sepsis BALB/c mouse assessed as reduction in serum AST level at 30 mg/kg administered via gavage for 3 days followed by LPS treatment for 6 hrs; assay type: functional, organism-based; details: time 78.0 hrs
Mus musculus [16] = assay: Anti-septic activity in LPS-induced sepsis BALB/c mouse assessed as reduction in serum CRP level at 30 mg/kg administered via gavage for 3 days followed by LPS treatment for 6 hrs; assay type: functional, organism-based; details: time 78.0 hrs

With `C[C@@H]1C[C@H]2[C@@H]3CCC4=CC(=O)C=C[C@]4(C)[C@@]3(F)[C@@H](O)C[C@]2(C)[C@@]1(O)C(=O)CO` the Activity (RAW264.7 [1]) was “Active” and the Activity (RAW264.7 [2]) was “Active”.
`CC(C)=CCC[C@@](C)(O)C1CC[C@]2(C)[C@@H]1[C@H](O)C[C@@H]1[C@@]3(C)CC[C@H](O)C(C)(C)[C@@H]3CC[C@]12C` (stereo partly specified) was tested, and the inhibition at 5 µM (RAW264.7 [3]) was 7.09%, the inhibition at 10 µM (RAW264.7 [4]) was 11.2% and the inhibition at 20 µM (RAW264.7 [5]) was 31.4%. For the same compound, the IC50 (RAW264.7 [6]) was 34.4 µM, the Activity [7] was “inactive” and the Activity (RAW264.7 [8]) was “inactive”. The Activity (RAW264.7 [9]) was “Active”, the Activity (RAW264.7 [10]) was “Active” and the Activity (RAW264.7 [11]) was “Active”. For the same compound, the Activity (Mus musculus [12]) was “inactive”, the Activity (Mus musculus [13]) was “inactive” and the Activity (Mus musculus [14]) was “Active”. For the same compound, the Activity (Mus musculus [15]) was “Active” and the Activity (Mus musculus [16]) was “Active”.
